From ChEMBL document CHEMBL1158205, “Antineoplastic agents. 340. Isolation and structural elucidation of bryostatins 16-18” (J Nat Prod, 1996) come the findings set out here.

The structures appear in SMILES notation. In brackets after ≈: the same amount, converted by molar mass.

One assay relates to P388. The assay can be described thus: Cytotoxicity against mouse P388 cells. The assay is classed as functional. As to conditions: read-out: ED50 (the source's name).
The next assay deals with OVCAR-3. The experiment in a line: Growth inhibition of human OVCAR-3 cells by NCI-method. The assay is classed as functional.
A further assay deals with SF-295. The experiment in a line: Growth inhibition of human SF295 cells by NCI-method. The assay is classed as functional.
For the next assay, the system named is A498. The experiment in a line: Growth inhibition of human A498 cells by NCI-method. The assay is classed as functional.
A further assay relates to NCI-H460. The assay can be described thus: Growth inhibition of human NCI-H460 cells by NCI-method. The assay is classed as functional.
The next assay deals with KM-20L2. The experiment in a line: Growth inhibition of human KM20L2 cells by NCI-method. The assay is classed as functional.
Another assay relates to SK-MEL-5. The experiment in a line: Growth inhibition of human SK-MEL-5 cells by NCI-method. The assay is classed as functional.
The target in assay [1] is Protein kinase C alpha type (Homo sapiens, UniProt P17252). The experiment in a line: Displacement of [3H]PDBu form PKCalpha. A general note: Loss of bound radioactivity is the signal in a displacement assay; it reports binding, not function.

Broadly, the GI50 is the concentration that inhibits growth by half. Low values mean more potent growth inhibition, high ones less potent growth inhibition. For orientation: Ki means a measure of affinity in units of concentration, obtained from inhibition or displacement. Lower therefore signals higher affinity. On to `COC(=O)/C=C1\C=C2O[C@@H](C1)C[C@H]([C@@H](C)O)OC(=O)C[C@H](O)C[C@@H]1C[C@H](OC(=O)C(C)(C)C)C(C)(C)[C@](O)(C[C@@H]3C/C(=C/C(=O)OC)C[C@H](/C=C/C2(C)C)O3)O1` [BRYOSTATIN 17], for which the EC50 in the assay with P388 was determined as 0.019 µg/mL (≈ 0.024 µM). Further, the GI50 with OVCAR-3, with SF-295, with A498, in the assay with NCI-H460, with KM-20L2 and in the assay with SK-MEL-5 was 0.16 µg/mL (≈ 0.202 µM) in each case. Also, the Ki in assay [1] was 188 nM.
Take `COC(=O)/C=C1/C[C@H]2C[C@]3(O)O[C@H](C[C@@H](O)CC(=O)O[C@@H]([C@@H](C)O)C[C@@H]4C/C(=C/C(=O)OC)C[C@@](O)(O4)C(C)(C)/C=C/[C@@H](C1)O2)C[C@H](OC(=O)C(C)(C)C)C3(C)C` [BRYOSTATIN 18]: in the assay on P388, the EC50 is 0.0033 µg/mL (≈ 0.00408 µM). Also, the GI50 in the assay on OVCAR-3, with SF-295, in the assay with A498, in the assay with NCI-H460, with KM-20L2 and in the assay on SK-MEL-5 was 0.42 µg/mL (≈ 0.519 µM) each time. Also, in assay [1], the Ki came to 4.82 nM.
As to `COC(=O)/C=C1/C[C@H]2C[C@]3(O)O[C@H](C[C@@H](O)CC(=O)O[C@@H]([C@@H](C)O)C[C@@H]4C/C(=C\C(=O)OC)C=C(O4)C(C)(C)/C=C/[C@@H](C1)O2)C[C@H](OC(=O)C(C)(C)C)C3(C)C` [BRYOSTATIN 16], the EC50 in the assay on P388 turned out to be 0.0093 µg/mL (≈ 0.0118 µM). Further, the GI50 with OVCAR-3 worked out at 1.9 µg/mL (≈ 2.4 µM); in the assay on SF-295, 1.4 µg/mL (≈ 1.77 µM); with A498, 1.9 µg/mL (≈ 2.4 µM); with NCI-H460, 0.019 µg/mL (≈ 0.024 µM); with KM-20L2, 2.2 µg/mL (≈ 2.78 µM); in the assay on SK-MEL-5 it was 1.2 µg/mL (≈ 1.52 µM). In addition, the Ki in assay [1] is 118 nM.
Turning to `COC(=O)/C=C1/C[C@H]2C[C@]3(O)O[C@H](C[C@@H](O)CC(=O)O[C@@H]([C@@H](C)O)C[C@@H]4C/C(=C\C(=O)OC)C[C@@](O)(O4)C(C)(C)/C=C/[C@@H](C1)O2)C[C@H](OC(=O)C(C)(C)C)C3(C)C` [BRYOSTATIN 10], the Ki in assay [1] came to 1.56 nM.
